# Tests used:
# [1] = system: NASH patients with F1 to F3 fibrosis; conditions: phase IIb CENTAUR trial, 1-year treatment; cited from earlier work
# [2] = system: clinical PCLS tissues; test: FPS/PLS response (CES, nCounter) in organotypic ex vivo culture of clinical PCLS tissues; type: cell-based, human
# Excerpt: Evaluation of galunisertib, erlotinib, AM095, bortezomib, pioglitazone, metformin, epigallocatechin gallate (EGCG), I-BET 151, JQ1, captopril, nizatidine (Selleck Chemicals); MG-132 (Sigma-Aldrich); cenicriviroc (AbbVie) (Table 2) were done in organotypic ex vivo culture of precision-cut liver slice (PCLS) tissues in the FPS validation set 2 as previously described. Patient-derived liver cell spheroids were generated from a cirrhosis patient and high-risk FPS was induced by free fatty acids, and treated with EGCG, bortezomib, cenicriviroc, and/or bezafibrate for 48 h. Mycoplasma-free human hepatic myofibroblast cell lines, LX-2 and TWNT-4, were cultured with MG-132 (20 μM) or DMSO control for 12 and 24 h in triplicates.
# Total RNA was isolated from fixed tissue sections by using High Pure RNA Paraffin kit (Roche), and assessed for quality by qRT-PCR of RPL13A. Total RNA from the PCLS tissues was isolated using RNeasy kit (Qiagen). RNA samples (100-200 ng) were subjected to the PLS/FPS assay implemented in the nCounter platform (NanoString), and transcriptome profiling of the CENTAUR trial samples was performed by RNA-Seq (TrueSeq RNA Access, Illumina). Expression of BCL2, COL1A1, and ACTA2 genes was measured by qRT-PCR (Table 3). Serum protein profiling was performed by using xMAP assay (Luminex).
# Total RNA was isolated from three to five 10-μm-thick formalin-fixed paraffin-embedded (FFPE) tissue sections from the PLS/FPS derivation/validation cohorts by using High Pure RNA Paraffin kit (Roche), and lack of severe RNA fragmentation was confirmed by qRT-PCR of a housekeeping gene RPL13A as previously described.^1 From freshly harvested myofibroblast cell lines, LX-2 and TWNT-4, and clinical precision-cut-liver slice (PCLS) tissues stored in RNAlater (ThermoFisher) at −80?C, total RNA was isolated using RNeasy kit (Qiagen), and the RNA integrity number (RIN)>8 by Bioanalyzer (Agilent) was regarded as sufficient quality for expression analysis. Total RNA samples (100 to 500 ng) were subjected to the gene signature assays implemented in the digital transcript counting technology (NanoString) according to manufacturer's instruction. Poor quality profiles were detected based on maximum signal intensity from positive control probes <3,000U. Raw transcript count data were log-transformed (base 2) and scaled by geometric mean of control probe data by using NanoString normalizer module implemented in GenePattern data analysis suite (www.broadinstitute.org/genepattern). Genome-wide transcriptome profiling of the CENTAUR trial samples was performed using 100 to 200 ng total RNA by RNA-Seq using exome-enriched library preparation according to the manufacturer's protocol (TrueSeq, Illumina). Raw sequencing reads were mapped onto the reference human genome (hg19) by using the STAR aligner (ver. 2.6.1b) followed by the read counting on genes via featureCounts in the Subread package (ver. 1.6.1). The raw read counts were further normalized by using the Relative Log Expression (RLE) implemented in the DESeq2 package (ver. 1.22.2). Expression of COL1A1, and ACTA2, and BCL2 genes was measured by qRT-PCR (BioRad) using ddCt method with RPL13A as housekeeping gene, as previously described (refer Table 3 for the primer sequences). Gene expression profiles of the PLS/FPS-inducible cell culture model (cell-culture-derived PLS [cPLS] system) treated with erlotinib, pioglitazone, captopril, and resveratrol were obtained from our previous study (GSE81801).
# [3] = system: NASH patients with F1 to F3 fibrosis; test: Histological fibrosis change after 1-year treatment in phase IIb CENTAUR trial; type: in vivo, human; conditions: cenicriviroc arm n=9, 1-year treatment
compound,measurement,setting,value
CCCCOCCOc1ccc(-c2ccc3c(c2)/C=C(/C(=O)Nc2ccc([S@@+]([O-])Cc4cncn4CCC)cc2)CCCN3CC(C)C)cc1 [Cenicriviroc],histological fibrosis,[1],improved histological fibrosis
same,FPS response rate (number of responding patients),"[2]; count of patients with CES-based FPS response, PCLS cultured 24 h with agent vs vehicle",4
same,PLS response rate (number of responding patients),"[2]; count of patients with PLS response, ex vivo PCLS culture",7
same,patients with improvement of fibrosis in the year 1 biopsy,[3],4 patients

# — US20260185169A1, “MOLECULAR SIGNATURES TO PREDICT LONG-TERM LIVER FIBROSIS PROGRESSION” (THE BOARD OF REGENTS OF THE UNIVERSITY OF TEXAS SYSTEM, priority 2022, published 2026)
